Experimental data as given in ChEMBL document CHEMBL2062454, “SAR studies around a series of triazolopyridines as potent and selective PI3Kγ inhibitors” (Bioorg Med Chem Lett, 2012).

What was measured:
[1] = molecular target: T1, Phosphatidylinositol 4,5-bisphosphate 3-kinase catalytic subunit gamma isoform (Homo sapiens, UniProt P48736); experiment: Inhibition of PI3Kgamma by high throughput chemoproteomics binding assay
[2] = molecular target: Phosphatidylinositol 4,5-bisphosphate 3-kinase catalytic subunit alpha isoform (Homo sapiens, UniProt P42336); experiment: Inhibition of PI3Kalpha by high throughput chemoproteomics binding assay
Chain of Phosphatidylinositol 4,5-bisphosphate 3-kinase catalytic subunit alpha isoform (P42336 whole entry, canonical isoform): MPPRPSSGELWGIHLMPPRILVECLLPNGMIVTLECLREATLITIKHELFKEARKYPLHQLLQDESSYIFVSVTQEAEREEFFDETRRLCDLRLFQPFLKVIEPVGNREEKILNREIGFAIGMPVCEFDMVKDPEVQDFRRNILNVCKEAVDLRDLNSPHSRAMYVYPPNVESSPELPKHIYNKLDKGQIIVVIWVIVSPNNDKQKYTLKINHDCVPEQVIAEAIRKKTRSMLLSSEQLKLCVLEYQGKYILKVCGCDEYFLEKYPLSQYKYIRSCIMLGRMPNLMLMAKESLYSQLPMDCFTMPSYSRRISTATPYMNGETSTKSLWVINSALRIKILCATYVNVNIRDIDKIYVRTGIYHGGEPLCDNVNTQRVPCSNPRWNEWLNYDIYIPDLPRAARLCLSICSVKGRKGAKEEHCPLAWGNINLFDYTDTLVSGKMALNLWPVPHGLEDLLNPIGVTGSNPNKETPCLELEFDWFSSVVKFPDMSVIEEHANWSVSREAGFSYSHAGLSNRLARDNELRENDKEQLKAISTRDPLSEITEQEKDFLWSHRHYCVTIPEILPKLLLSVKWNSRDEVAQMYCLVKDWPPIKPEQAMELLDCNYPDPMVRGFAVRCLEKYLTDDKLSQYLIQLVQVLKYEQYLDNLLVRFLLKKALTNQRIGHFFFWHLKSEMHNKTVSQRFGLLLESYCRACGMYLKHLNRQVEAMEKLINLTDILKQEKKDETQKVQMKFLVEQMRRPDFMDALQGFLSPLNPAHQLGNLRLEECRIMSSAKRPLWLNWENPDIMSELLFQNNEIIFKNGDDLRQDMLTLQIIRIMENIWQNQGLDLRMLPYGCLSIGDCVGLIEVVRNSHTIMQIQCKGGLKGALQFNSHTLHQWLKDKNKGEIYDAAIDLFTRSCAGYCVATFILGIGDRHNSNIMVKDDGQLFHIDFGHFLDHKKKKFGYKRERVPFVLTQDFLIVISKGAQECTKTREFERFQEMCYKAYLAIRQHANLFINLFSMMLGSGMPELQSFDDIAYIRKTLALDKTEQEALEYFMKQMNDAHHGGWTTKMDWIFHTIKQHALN

[3] = molecular target: T1, Phosphatidylinositol 4,5-bisphosphate 3-kinase catalytic subunit gamma isoform; experiment: Inhibition of PI3Kgamma assessed as inhibition of C5a-induced AKT phosphorylation at Ser473 by cell based assay
[4] = molecular target: T2, Phosphatidylinositol 4,5-bisphosphate 3-kinase catalytic subunit delta isoform (Homo sapiens, UniProt O00329); experiment: Inhibition of PI3Kdelta by high throughput chemoproteomics binding assay
T2 sequence (O00329 whole entry): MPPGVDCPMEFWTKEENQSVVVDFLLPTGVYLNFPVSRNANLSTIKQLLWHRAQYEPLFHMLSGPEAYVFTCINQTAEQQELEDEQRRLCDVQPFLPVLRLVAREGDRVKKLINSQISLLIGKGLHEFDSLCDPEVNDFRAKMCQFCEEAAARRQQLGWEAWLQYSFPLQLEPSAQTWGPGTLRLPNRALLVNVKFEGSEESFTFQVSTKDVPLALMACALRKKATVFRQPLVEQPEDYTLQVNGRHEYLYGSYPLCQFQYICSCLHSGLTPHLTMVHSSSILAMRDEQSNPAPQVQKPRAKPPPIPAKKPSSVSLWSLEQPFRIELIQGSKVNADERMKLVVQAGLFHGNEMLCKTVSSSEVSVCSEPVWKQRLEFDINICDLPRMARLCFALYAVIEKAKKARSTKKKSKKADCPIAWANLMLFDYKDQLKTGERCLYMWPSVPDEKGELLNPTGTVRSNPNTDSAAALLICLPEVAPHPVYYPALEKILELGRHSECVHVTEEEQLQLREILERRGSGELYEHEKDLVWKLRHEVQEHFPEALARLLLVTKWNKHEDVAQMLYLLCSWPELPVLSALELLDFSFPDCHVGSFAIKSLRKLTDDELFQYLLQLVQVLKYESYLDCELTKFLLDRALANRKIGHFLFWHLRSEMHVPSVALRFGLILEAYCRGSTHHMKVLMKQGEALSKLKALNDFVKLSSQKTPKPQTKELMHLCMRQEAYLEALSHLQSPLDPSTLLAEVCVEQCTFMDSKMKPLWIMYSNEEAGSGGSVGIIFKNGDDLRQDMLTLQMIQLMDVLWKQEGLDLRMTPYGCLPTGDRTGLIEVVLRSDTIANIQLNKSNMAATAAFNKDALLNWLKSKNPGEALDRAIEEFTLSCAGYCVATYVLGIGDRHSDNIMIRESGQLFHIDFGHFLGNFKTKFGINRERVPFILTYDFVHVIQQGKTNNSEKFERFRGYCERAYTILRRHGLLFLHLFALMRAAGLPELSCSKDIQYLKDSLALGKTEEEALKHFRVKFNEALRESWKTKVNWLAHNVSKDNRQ

[5] = Half life in mouse microsomes; format: ADME, Microsome
[6] = Half life in human microsomes; format: ADME, Microsome
[7] = Half life in rat microsomes; format: ADME, Microsome
[8] = molecular target: Phosphatidylinositol 4,5-bisphosphate 3-kinase catalytic subunit beta isoform (Homo sapiens, UniProt P42338); experiment: Inhibition of PI3Kbeta by high throughput chemoproteomics binding assay
Chain of Phosphatidylinositol 4,5-bisphosphate 3-kinase catalytic subunit beta isoform (P42338 whole entry, canonical isoform): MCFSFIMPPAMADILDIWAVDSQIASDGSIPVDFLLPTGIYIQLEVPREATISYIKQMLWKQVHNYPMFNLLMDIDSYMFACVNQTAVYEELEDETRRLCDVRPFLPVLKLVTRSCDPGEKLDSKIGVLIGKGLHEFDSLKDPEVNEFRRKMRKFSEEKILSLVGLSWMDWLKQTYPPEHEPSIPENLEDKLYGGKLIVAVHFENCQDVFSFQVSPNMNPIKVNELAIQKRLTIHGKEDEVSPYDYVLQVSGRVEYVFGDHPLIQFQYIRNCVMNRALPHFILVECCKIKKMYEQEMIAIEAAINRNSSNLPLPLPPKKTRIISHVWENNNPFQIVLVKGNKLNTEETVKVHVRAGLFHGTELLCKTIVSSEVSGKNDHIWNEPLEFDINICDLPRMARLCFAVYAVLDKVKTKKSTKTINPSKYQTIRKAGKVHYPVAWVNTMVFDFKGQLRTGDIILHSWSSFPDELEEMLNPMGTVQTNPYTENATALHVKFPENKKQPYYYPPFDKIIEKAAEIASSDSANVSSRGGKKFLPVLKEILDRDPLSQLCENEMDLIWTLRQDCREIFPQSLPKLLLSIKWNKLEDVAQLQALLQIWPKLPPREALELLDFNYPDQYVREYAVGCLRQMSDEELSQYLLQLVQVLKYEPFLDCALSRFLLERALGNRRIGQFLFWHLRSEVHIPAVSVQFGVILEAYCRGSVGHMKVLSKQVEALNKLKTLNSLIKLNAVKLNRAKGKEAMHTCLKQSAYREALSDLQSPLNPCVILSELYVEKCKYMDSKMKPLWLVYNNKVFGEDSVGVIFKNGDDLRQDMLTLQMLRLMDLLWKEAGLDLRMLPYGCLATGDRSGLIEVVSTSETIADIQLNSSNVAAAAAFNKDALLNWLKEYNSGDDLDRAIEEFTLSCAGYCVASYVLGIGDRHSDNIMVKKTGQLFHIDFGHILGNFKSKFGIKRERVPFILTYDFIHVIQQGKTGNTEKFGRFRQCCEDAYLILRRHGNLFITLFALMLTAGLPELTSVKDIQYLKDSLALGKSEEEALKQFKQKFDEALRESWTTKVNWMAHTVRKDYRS

[9] = species: Homo sapiens; experiment: Selectivity ratio of IC50 for PI3Kdelta to IC50 for PI3Kgamma
[10] = species: Homo sapiens; experiment: Selectivity ratio of IC50 for PI3Kbeta to IC50 for PI3Kgamma
[11] = species: Homo sapiens; experiment: Selectivity ratio of IC50 for PI3Kalpha to IC50 for PI3Kgamma
[12] = Protein binding in plasma; format: ADME, cell-free; conditions: read-out: PPB

T1 sequence (P48736 whole entry, canonical isoform): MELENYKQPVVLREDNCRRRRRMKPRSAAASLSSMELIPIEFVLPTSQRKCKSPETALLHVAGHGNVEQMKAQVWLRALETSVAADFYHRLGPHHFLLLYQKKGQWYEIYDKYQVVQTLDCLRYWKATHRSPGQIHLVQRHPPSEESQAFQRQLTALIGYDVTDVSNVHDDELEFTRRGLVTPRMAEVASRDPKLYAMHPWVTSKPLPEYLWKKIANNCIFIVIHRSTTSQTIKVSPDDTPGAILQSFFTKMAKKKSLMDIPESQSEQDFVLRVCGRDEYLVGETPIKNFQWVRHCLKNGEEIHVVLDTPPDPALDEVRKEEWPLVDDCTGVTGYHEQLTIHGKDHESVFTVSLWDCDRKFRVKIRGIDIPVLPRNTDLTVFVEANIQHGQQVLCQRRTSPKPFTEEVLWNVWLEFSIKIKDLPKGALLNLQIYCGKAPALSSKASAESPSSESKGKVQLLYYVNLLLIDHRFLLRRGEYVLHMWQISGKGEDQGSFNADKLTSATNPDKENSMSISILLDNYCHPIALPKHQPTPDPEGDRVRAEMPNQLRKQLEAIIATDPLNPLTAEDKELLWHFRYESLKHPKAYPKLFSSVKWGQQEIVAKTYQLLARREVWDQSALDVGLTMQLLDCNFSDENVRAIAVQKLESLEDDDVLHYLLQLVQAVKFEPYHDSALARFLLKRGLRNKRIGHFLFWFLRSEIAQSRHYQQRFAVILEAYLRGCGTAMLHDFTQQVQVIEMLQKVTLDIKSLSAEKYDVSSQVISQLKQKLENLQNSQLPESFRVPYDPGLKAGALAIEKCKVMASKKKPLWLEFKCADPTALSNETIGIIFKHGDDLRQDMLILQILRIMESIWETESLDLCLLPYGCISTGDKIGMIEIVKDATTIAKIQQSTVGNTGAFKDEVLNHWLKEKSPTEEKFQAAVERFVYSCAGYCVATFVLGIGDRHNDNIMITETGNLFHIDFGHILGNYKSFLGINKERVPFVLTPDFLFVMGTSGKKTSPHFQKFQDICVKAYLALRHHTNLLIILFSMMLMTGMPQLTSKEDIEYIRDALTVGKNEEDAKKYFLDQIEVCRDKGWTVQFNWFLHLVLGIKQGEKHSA

Structure (SMILES)	IC50 [1]	IC50 [2]	IC50 [4]	also measured
CC(=O)Nc1nc2ccc(-c3cccc(S(C)(=O)=O)c3)cn2n1	0.501 µM	> 50.1 µM	3.16 µM	IC50 [3]: > 12.6 µM
CC(C)NS(=O)(=O)c1cncc(-c2ccc3nc(N)nn3c2)c1	0.0316 µM	2.51 µM	1.58 µM	IC50 [3]: 1.58 µM; half-life [5]: > 45 min; half-life [6]: > 45 min; half-life [7]: > 45 min
CC(=O)Nc1nc2ccc(-c3cnn(C)c3)cn2n1	3.98 µM	> 63.1 µM	> 100 µM	–
CC(=O)Nc1nc2ccc(-c3cncc(S(C)(=O)=O)c3)c(C)n2n1	1 µM	> 100 µM	> 39.8 µM	IC50 [8]: 25.1 µM
CNS(=O)(=O)c1ccc(-c2ccc3nc(NC(C)=O)nn3c2)cc1	> 50.1 µM	> 100 µM	> 100 µM	–
CC(=O)N(C)c1nc2ccc(-c3cccc(S(C)(=O)=O)c3)cn2n1	> 31.6 µM	> 100 µM	> 100 µM	–
COc1ccccc1-c1ccc2nc(NC(C)=O)nn2c1	3.98 µM	> 100 µM	31.6 µM	Ratio IC50 [9]: 5; Ratio IC50 [10]: > 30; Ratio IC50 [11]: > 30; IC50 [8]: > 100 µM
COc1ccc(-c2ccc3nc(NC(C)=O)nn3c2)cc1OC	0.0398 µM	0.316 µM	2 µM	–
CC(=O)Nc1nc2ccc(-c3cncc(S(C)(=O)=O)c3)cn2n1	–	–	–	half-life [5]: > 45 min; half-life [6]: > 45 min; half-life [7]: > 45 min
CC(=O)Nc1nc2c(F)cc(-c3cncc(S(C)(=O)=O)c3)cn2n1	0.126 µM	> 20 µM	> 20 µM	IC50 [8]: 20 µM
CC(=O)Nc1nc2ccc(-c3ccsc3)cn2n1	0.398 µM	0.2 µM	> 20 µM	–
CS(=O)(=O)Nc1nc2ccc(-c3cncc(S(C)(=O)=O)c3)cn2n1	> 39.8 µM	> 100 µM	> 100 µM	–
CC(C)(C)NS(=O)(=O)c1cncc(-c2cn3nc(N)nc3cc2F)c1	25.1 µM	> 100 µM	> 100 µM	IC50 [8]: > 100 µM
CC(=O)Nc1nc2cc(C)c(-c3cncc(S(C)(=O)=O)c3)cn2n1	> 100 µM	> 100 µM	> 100 µM	IC50 [8]: 200 µM
COc1cccc(-c2ccc3nc(NC(C)=O)nn3c2)c1	0.158 µM	> 79.4 µM	> 79.4 µM	–
CC(=O)Nc1nc2ccc(-c3cncc(CS(N)(=O)=O)c3)cn2n1	0.00794 µM	> 0.1 µM	> 1 µM	–
CNS(=O)(=O)c1cccc(-c2ccc3nc(NC(C)=O)nn3c2)c1	0.251 µM	> 10 µM	1 µM	–
CC(=O)Nc1nc2ccc(-c3cccc(S(=O)(=O)NCc4ccccc4)c3)cn2n1	0.501 µM	> 100 µM	6.31 µM	–
COc1cncc(-c2ccc3nc(NC(C)=O)nn3c2)c1	0.0631 µM	> 3.98 µM	> 10 µM	–
Nc1nc2ccc(-c3cncc(S(=O)(=O)NCC4CC4)c3)cn2n1	0.0158 µM	3.16 µM	> 6.31 µM	IC50 [3]: 2 µM
CC(=O)Nc1nc2c(C)cc(-c3cncc(S(C)(=O)=O)c3)cn2n1	0.1 µM	> 39.8 µM	> 5.01 µM	IC50 [8]: 20 µM
COc1ccc(-c2ccc3nc(NC(C)=O)nn3c2)cc1S(=O)(=O)NCc1ccccc1	> 100 µM	> 100 µM	> 10 µM	–
CC(=O)Nc1nc2ccc(-c3ccc(S(C)(=O)=O)cc3)cn2n1	> 100 µM	> 100 µM	> 100 µM	–

Structure (SMILES)	IC50 [1]	IC50 [2]	IC50 [4]	also measured
CN(C)c1nc2ccc(-c3cncc(S(C)(=O)=O)c3)cn2n1	3.16 µM	> 100 µM	> 100 µM	–
CNC(=O)c1cccc(-c2ccc3nc(NC(C)=O)nn3c2)c1	0.631 µM	> 50.1 µM	> 100 µM	–
CCCCNS(=O)(=O)c1cccc(-c2ccc3nc(NC(C)=O)nn3c2)c1	0.2 µM	10 µM	1.26 µM	–
Nc1nc2ccc(-c3cncc(S(=O)(=O)NCc4ccccc4)c3)cn2n1	0.251 µM	> 20 µM	7.94 µM	IC50 [3]: 1.26 µM
CC(=O)Nc1nc2ccc(-c3cccc(NS(C)(=O)=O)c3)cn2n1	0.316 µM	5.01 µM	5.01 µM	–
CS(=O)(=O)c1cncc(-c2cc(Cl)c3nc(N)nn3c2)c1	2 µM	> 100 µM	> 100 µM	IC50 [8]: > 100 µM
CC(C)(C)S(=O)(=O)c1cncc(-c2ccc3nc(N)nn3c2)c1	0.158 µM	> 15.8 µM	3.16 µM	IC50 [3]: > 10 µM
CC(=O)Nc1nc2ccc(-c3cc(C)c(O)c(C)c3)cn2n1	2 µM	12.6 µM	6.31 µM	Ratio IC50 [9]: 5; Ratio IC50 [10]: 10; Ratio IC50 [11]: 6.3; IC50 [8]: 20 µM
CC(=O)Nc1nc2ccc(-c3cncc4ccccc34)cn2n1	3.16 µM	> 100 µM	> 100 µM	–
CC(=O)Nc1nc2ccc(-c3cncc(S(=O)(=O)NCc4ccccc4)c3)cn2n1	0.0398 µM	> 3.16 µM	3.16 µM	–
CC(=O)Nc1nc2ccc(-c3cccnc3)cn2n1	0.251 µM	15.8 µM	> 31.6 µM	Ratio IC50 [9]: > 60; Ratio IC50 [11]: > 60
CC(=O)Nc1nc2ccc(-c3sc(C)nc3C)cn2n1	> 12.6 µM	6.31 µM	> 100 µM	–
CC(=O)Nc1nc2ccc(-c3ccncc3)cn2n1	1.58 µM	1.58 µM	> 100 µM	–
CNc1nc2ccc(-c3cncc(S(C)(=O)=O)c3)cn2n1	0.316 µM	> 3.98 µM	> 25.1 µM	–
Nc1nc2ccc(-c3cncc(NS(=O)(=O)c4ccc(Cl)cc4)c3)cn2n1	0.00631 µM	0.158 µM	0.398 µM	IC50 [3]: 2 µM; fraction unbound [12]: < 0.01
Nc1nc2ccc(-c3cncc(S(=O)(=O)Nc4ccc(Cl)cc4)c3)cn2n1	0.631 µM	3.98 µM	6.31 µM	IC50 [3]: > 12.6 µM
CS(=O)(=O)c1cncc(-c2cc(C(F)(F)F)c3nc(N)nn3c2)c1	> 100 µM	> 100 µM	> 100 µM	–
CS(=O)(=O)Nc1cccc(-c2ccc3nc(NC(=O)C4CCCCC4)nn3c2)c1	0.316 µM	> 100 µM	0.501 µM	–
CS(=O)(=O)c1cncc(-c2ccc3nc(N)nn3c2)c1	–	–	–	IC50 [3]: 2 µM
CC(=O)Nc1nc2ccc(-c3cccc(-c4ccccc4)c3)cn2n1	> 3.98 µM	> 20 µM	> 100 µM	–
COc1ccc(-c2ccc3nc(NC(C)=O)nn3c2)cc1	1 µM	25.1 µM	31.6 µM	–
CC(=O)Nc1nc2ccc(-c3cncnc3)cn2n1	3.98 µM	> 15.8 µM	> 100 µM	–
